From patent US9018392B1, “Compounds, compositions and methods for crop enhancement” (Active AgriProducts Inc., priority 2014, dated 2015)

Assays:
Type in all cases: in vivo
wheat [1] = assay: Experiment 9 wheat yield, field test conditions; conditions: crop maturation (approximately 90 days)
Procedure: For the Experiments described below, application of 1,2-dimethyl-4-dimethylaminomethyl-5-hydroxy benzimidazole (referred to herein as INTRINSICTM) was by way of seed treatment. Treated seeds were prepared by mixing 1.0 kg of seed and 2.0 mL of an aqueous solution of INTRINSICTM comprising 0.1% potassium hydroxide in a ZIPLOCTM bag. Control seeds were prepared by mixing 1.0 kg of seed and 2.0 mL of aqueous 0.1% potassium hydroxide solution in a ZIPLOCTM bag. The seeds and solutions were sufficiently mixed to wet the seeds. The seeds were dried after being wetted. […] Experiment 9 tested the effects of 40 ppm INTRINSICTM, CRUISER […], and the combination of the two, on wheat yield under field test conditions. CRUISER […] was applied per the manufacturer's recommendations. FIGS. 9(a) and 9(b) display yield results at crop maturation (approximately 90 days), showing greater yield crops from INTRINSICTM-treated seeds (whether alone or in combination with CRUISER […]) compared to crops from control seeds.

canola [2] = assay: Experiment 3 canola root growth, greenhouse conditions; conditions: 40 ppm seed treatment; 10 days
Procedure: For the Experiments described below, application of 1,2-dimethyl-4-dimethylaminomethyl-5-hydroxy benzimidazole (referred to herein as INTRINSIC™) was by way of seed treatment. Treated seeds were prepared by mixing 1.0 kg of seed and 2.0 mL of an aqueous solution of INTRINSIC™ comprising 0.1% potassium hydroxide in a ZIPLOC™ bag. Control seeds were prepared by mixing 1.0 kg of seed and 2.0 mL of aqueous 0.1% potassium hydroxide solution in a ZIPLOC™ bag. The seeds and solutions were sufficiently mixed to wet the seeds. The seeds were dried after being wetted. […] Experiment 3 tested the effects of 40 ppm INTRINSIC™ on canola root growth under greenhouse conditions.

canola [3] = assay: Experiment 10 canola yield, field test conditions, first site; conditions: 20 ppm and 40 ppm seed treatment, crop maturation (approximately 90 days)
Procedure: For the Experiments described below, application of 1,2-dimethyl-4-dimethylaminomethyl-5-hydroxy benzimidazole (referred to herein as INTRINSIC™) was by way of seed treatment. Treated seeds were prepared by mixing 1.0 kg of seed and 2.0 mL of an aqueous solution of INTRINSIC™ comprising 0.1% potassium hydroxide in a ZIPLOC™ bag. Control seeds were prepared by mixing 1.0 kg of seed and 2.0 mL of aqueous 0.1% potassium hydroxide solution in a ZIPLOC™ bag. The seeds and solutions were sufficiently mixed to wet the seeds. The seeds were dried after being wetted. […] Experiments 10 and 11 tested the effects of 20 ppm and 40 ppm INTRINSIC™ on canola yield under field test conditions. FIGS. 10(a) and 10(b) display yield results at crop maturation (approximately 90 days) at a first site, showing greater yield crops from treated seeds compared to crops from control seeds. FIGS. 11(a) and 11(b) display yield results at crop maturation (approximately 90 days) at a second site, again showing greater yield crops from treated seeds compared to crops from control seeds.

wheat [4] = assay: Experiment 1 wheat seed germination, laboratory conditions, seedling trays; conditions: 20 ppm and 40 ppm seed treatment
Procedure: (§1) For the Experiments described below, application of 1,2-dimethyl-4-dimethylaminomethyl-5-hydroxy benzimidazole (referred to herein as INTRINSIC™) was by way of seed treatment. Treated seeds were prepared by mixing 1.0 kg of seed and 2.0 mL of an aqueous solution of INTRINSIC™ comprising 0.1% potassium hydroxide in a ZIPLOC™ bag. Control seeds were prepared by mixing 1.0 kg of seed and 2.0 mL of aqueous 0.1% potassium hydroxide solution in a ZIPLOC™ bag. The seeds and solutions were sufficiently mixed to wet the seeds. The seeds were dried after being wetted. […] Experiment 1 tested the effects of 20 ppm and 40 ppm INTRINSIC™ on wheat seed germination under laboratory conditions. Treated and control seeds were grown in seedling trays lined with moistened tissue.

wheat [5] = assay: Experiment 2(b) wheat root growth, greenhouse conditions; conditions: 40 ppm seed treatment, 10 days, FIG. 2(b)
Procedure: as §1, with “Experiment 2(a)” for “Experiment 1”, “wheat root growth” for “wheat seed germination”, “tissue. Experiment 2(b) tested the effects of 40 ppm INTRINSIC™ on wheat root growth under greenhouse conditions. Experiment 2(c) tested the effects of 40 ppm INTRINSIC™ on wheat root growth under laboratory conditions. Treated and control seeds were grown in agar culture medium. Results at 8 days are shown Figure in FIG. 2(c).” for “tissue.”

canola [6] = assay: Experiment 8 canola growth, field test conditions, second site; conditions: 10 days
Procedure: (§2) For the Experiments described below, application of 1,2-dimethyl-4-dimethylaminomethyl-5-hydroxy benzimidazole (referred to herein as INTRINSIC™) was by way of seed treatment. Treated seeds were prepared by mixing 1.0 kg of seed and 2.0 mL of an aqueous solution of INTRINSIC™ comprising 0.1% potassium hydroxide in a ZIPLOC™ bag. Control seeds were prepared by mixing 1.0 kg of seed and 2.0 mL of aqueous 0.1% potassium hydroxide solution in a ZIPLOC™ bag. The seeds and solutions were sufficiently mixed to wet the seeds. The seeds were dried after being wetted. […] Experiments 7 and 8 tested the effects of 20 ppm and 40 ppm INTRINSIC™, on canola growth under field test conditions.

canola [7] = assay: Experiment 7 canola growth, field test conditions, first site; conditions: 20 ppm and 40 ppm seed treatment, 10 days
Procedure: as §2

[8] = 20 ppm and 40 ppm seed treatment
[9] = 40 ppm seed treatment, another set of tests

Cc1nc2c(CN(C)C)c(O)ccc2n1C [INTRINSIC™, 1,2-dimethyl-4-dimethylaminomethyl-5-hydroxy benzimidazole]
wheat yield compared to crops from control seeds (wheat [1]; 40 ppm seed treatment alone): greater yield
wheat yield compared to crops from control seeds (wheat [1]; 40 ppm seed treatment in combination with CRUISER MAXX™): greater yield
foliage size compared to control seedlings (canola [2]): larger foliage
number of roots compared to control seedlings (canola [2]): greater number of roots
root length compared to control seedlings (canola [2]): longer roots
canola yield compared to crops from control seeds (canola [3]): greater yield
number of wheat seeds broken open compared to control (wheat [4]; 24 hours): greater number
number of roots compared to control seedlings (wheat [4]; 48 h, 72 h and 96 h): greater number of roots
root length compared to control seedlings (wheat [4]; 48 h, 72 h and 96 h): longer roots
shoot length compared to control seedlings (wheat [4]; 48 h, 72 h and 96 h): longer shoots
number of roots compared to control seedlings (wheat [5]): greater number of roots
root length compared to control seedlings (wheat [5]): longer roots
shoot length compared to control seedlings (wheat [5]): longer shoots
root length compared to control seedlings (canola [6]; [8]): significant increases
root surface area compared to control seedlings (canola [6]; [8]): significant increases
root weight compared to control seedlings (canola [6]; [9]): significant increases
shoot weight compared to control seedlings (canola [6]; [9]): significant increases
root length compared to control seedlings (canola [7]): significant increases
root surface area compared to control seedlings (canola [7]): significant increases
root weight compared to control seedlings (canola [7]; another set of tests): significant increases
shoot weight compared to control seedlings (canola [7]; another set of tests): significant increases
